This experiment has as its target T1, Recombinant human EP300 containing the bromodomain (EP300-BD (1040-1161)) (Homo sapiens, UniProt Q09472).
T1 construct: Recombinant human EP300 bromodomain (EP300-BD (1040-1161)); made in house; host or cells: E. coli BL21-CodonPlus (DE3), modified pET vector
T1 sequence (Q09472 1040-1161): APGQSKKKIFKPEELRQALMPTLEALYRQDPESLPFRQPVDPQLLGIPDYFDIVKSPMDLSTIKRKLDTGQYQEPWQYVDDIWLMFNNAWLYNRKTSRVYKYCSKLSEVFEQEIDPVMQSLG
The experiment can be described thus: EP300 Alphascreen binding assay. The method, boiled down:
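Displacement of a biotinylated acetyl-K56 histone H3 peptide from the N-His bromodomain construct (1040-1161) measured by AlphaScreen proximity, beads at 7.5 μg/ml final, read 60 min after addition. Protein, peptide and compound first incubated 1 h at room temperature, pH 7.5 HEPES buffer; IC50 by four-parameter logistic fit.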
In general terms: Bead proximity is the source of the signal in Alpha formats.

This note sets out measurements from patent US11446287B2, “Compounds and methods for EP300 or CBP modulation and indications therefor” (Opna Immuno-Oncology SA, priority 2019, dated 2022).

As to `Cc1noc(C)c1-c1cnc2c(c1)c(-c1cnn(C(C)(C)C(=O)O)c1)cn2C(c1ccccn1)C1CCCC1` (stereo not shown) [P-0035, 2-(4-(1-(cyclopentyl(pyridin-2-yl)methyl)-5-(3,5-dimethylisoxazol-4-yl)-1H-pyrrolo[2,3-b]pyridin-3-yl)-1H-pyrazol-1-yl)-2-methylpropanoic acid], the IC50 (usually the concentration that gives 50% inhibition) fell in the range of 0.1 to 1000 nM.

Take `Cc1noc(C)c1-c1cnc2c(c1)c(-c1cnn(CC(=O)O)c1)cn2C(c1ccccn1)C1CCCC1` (stereo not shown) [P-0036, 2-(4-(1-(cyclopentyl(pyridin-2-yl)methyl)-5-(3,5-dimethylisoxazol-4-yl)-1H-pyrrolo[2,3-b]pyridin-3-yl)-1H-pyrazol-1-yl)acetic acid]: the IC50 fell in the range of 0.1 to 1000 nM.

Turning to `Cc1noc(C)c1-c1cnc2c(c1)c(-c1cnn(CC(C)(C)O)c1)cn2C(c1ccccn1)C1CCCC1` (stereo not shown) [P-0037, 1-(4-(1-(cyclopentyl(pyridin-2-yl)methyl)-5-(3,5-dimethylisoxazol-4-yl)-1H-pyrrolo[2,3-b]pyridin-3-yl)-1H-pyrazol-1-yl)-2-methylpropan-2-ol], the half-maximal inhibitory concentration (IC50) is 1000 to 8000 nM.

For the compound `Cc1noc(C)c1-c1cnc2c(c1)c(-c1ccc(C(=O)O)c(Cl)c1)cn2C(c1ccccn1)C1CCCC1` (stereo not shown) [P-0038, 2-chloro-4-(1-(cyclopentyl(pyridin-2-yl)methyl)-5-(3,5-dimethylisoxazol-4-yl)-1H-pyrrolo[2,3-b]pyridin-3-yl)benzoic acid], the half-maximal inhibitory concentration (IC50) was 0.1 to 1000 nM.

Turning to `COC(=O)c1cc(-c2cn(C(c3ccccn3)C3CCCC3)c3ncc(-c4c(C)noc4C)cc23)ccn1` (stereo not shown) [P-0040, methyl 4-(1-(cyclopentyl(pyridin-2-yl)methyl)-5-(3,5-dimethylisoxazol-4-yl)-1H-pyrrolo[2,3-b]pyridin-3-yl)picolinate], the IC50 is 0.1 to 1000 nM.

Turning to `Cc1noc(C)c1-c1cnc2c(c1)c(-c1ccnc(C(=O)O)c1)cn2C(C1CC1)C1CC1` [P-0041, 4-(1-(dicyclopropylmethyl)-5-(3,5-dimethylisoxazol-4-yl)-1H-pyrrolo[2,3-b]pyridin-3-yl)picolinic acid], the IC50 was 0.1 to 1000 nM.

Consider `Cc1noc(C)c1-c1cnc2c(c1)c(-c1ccnc(C(=O)O)c1)cn2Cc1ccccc1` [P-0042, 4-(1-benzyl-5-(3,5-dimethylisoxazol-4-yl)-1H-pyrrolo[2,3-b]pyridin-3-yl)picolinic acid], for which the half-inhibitory concentration (IC50) is 0.1 to 1000 nM.

As to `Cc1noc(C)c1-c1cnc2c(c1)c(-c1ccnc(C(=O)O)c1)cn2C(c1ccccn1)C1CCC1` (stereo not shown) [P-0043, 4-(1-(cyclobutyl(pyridin-2-yl)methyl)-5-(3,5-dimethylisoxazol-4-yl)-1H-pyrrolo[2,3-b]pyridin-3-yl)picolinic acid], the IC50 is 0.1 to 1000 nM.

`Cc1noc(C)c1-c1cnc2c(c1)c(-c1ccnc(C(=O)O)c1)cn2Cc1ccccn1` [P-0044, 4-(5-(3,5-dimethylisoxazol-4-yl)-1-(pyridin-2-ylmethyl)-1H-pyrrolo[2,3-b]pyridin-3-yl)picolinic acid]: the IC50 was in the range of 0.1 to 1000 nM.

Regarding `Cc1noc(C)c1-c1cnc2c(c1)c(-c1ccnc(C(=O)O)c1)cn2CC1CC1` [P-0045, 4-(1-(cyclopropylmethyl)-5-(3,5-dimethylisoxazol-4-yl)-1H-pyrrolo[2,3-b]pyridin-3-yl)picolinic acid], the 50% inhibitory concentration (IC50) fell in the range of 0.1 to 1000 nM.

Regarding `COC(=O)c1cc(-c2cn(C(c3ccccn3)C3CCC3)c3ncc(-c4c(C)noc4C)cc23)ccn1` (stereo not shown) [P-0046, methyl 4-(1-(cyclobutyl(pyridin-2-yl)methyl)-5-(3,5-dimethylisoxazol-4-yl)-1H-pyrrolo[2,3-b]pyridin-3-yl)picolinate], the 50% inhibitory concentration (IC50) lay in the range of 0.1 to 1000 nM.

Regarding `COc1cc(C(=O)O)ccc1-c1cn([C@@H](C)c2ccccn2)c2ncc(-c3c(C)noc3C)cc12` [P-0047, (S)-4-(5-(3,5-dimethylisoxazol-4-yl)-1-(1-(pyridin-2-yl)ethyl)-1H-pyrrolo[2,3-b]pyridin-3-yl)-3-methoxybenzoic acid], the IC50 fell in the range of 0.1 to 1000 nM.

For the compound `Cc1noc(C)c1-c1cnc2c(c1)c(-c1cccc(C(=O)O)c1)cn2Cc1ccccc1` [P-0048, 3-(1-benzyl-5-(3,5-dimethylisoxazol-4-yl)-1H-pyrrolo[2,3-b]pyridin-3-yl)benzoic acid], the concentration for half-maximal inhibition (IC50) was 0.1 to 1000 nM.
